Data taken from article PMC9787943, “Calcium-Dependent Interplay of Lithium and Tricyclic Antidepressants, Amitriptyline and Desipramine, on N-methyl-D-aspartate Receptors” (International Journal of Molecular Sciences, 2022).
Where two headings read alike, the source gives them in different places.

Test system: T1, native di- and triheteromeric NMDARs composed of GluN1, GluN2A, and GluN2B subunits
T1 construct: gene Grin1; native receptors in primary cultured cortical neurons (from fetal brains of 17-day pregnant rats, 10-14 days in culture); mixture of di- and triheteromers, heterotetramers with two GluN1 (known biology)
Test: whole-cell patch clamp of cultured neurons, NMDA-elicited currents
Format: cell-based, Rattus norvegicus
Conditions: Na+ solution without Li+, 100 μM NMDA + 30 μM glycine, -70 mV, pH 7.2-7.4, 22-25 °C, no BAPTA, mode: Ca2+-dependent desensitization (paper suggests indirect, via NCX) plus open-channel bloc
Text: whole-cell patch clamp of cultured neurons, NMDA-elicited currents on native di- and triheteromeric NMDARs composed of GluN1, GluN2A, and GluN2B subunits

SMILES	IC50 (2 mM Ca2+, read-out: IC50 ATL) [µM]	IC50 (1 mM Ca2+, read-out: IC50 DES) [µM]
CN(C)CCC=C1c2ccccc2CCc2ccccc21 [Amitriptyline]	5 ± 1	–
CNCCCN1c2ccccc2CCc2ccccc21 [Desipramine]	–	1.75 ± 0.17
